Assay results as given in US20260265244A1, “HETEROCYCLIC COMPOUNDS AS STING ANTAGONISTS” (Boehringer Ingelheim International GmbH, priority 2022, published 2026).

Assays:
[1] = target: T1, human STING WT (R232) (Homo sapiens, UniProt Q86WV6, H232R); assay: Human STING HTRF binding assay (competitive, Cisbio 64BDSTGPEG)
T1 construct: purchased Cisbio 64BDSTGPEG
Experimental: Binders to human STING WT (R232) were identified using a competitive HTRF assay format (Cisbio 64BDSTGPEG), which uses d2-labeled STING ligand, a 6His (SEQ ID NO: 2) tagged human STING protein, and an anti 6His (SEQ ID NO: 2) Cryptate-labeled antibody. Compounds compete with the STING ligand-d2 and thereby prevents FRET from occurring, which can be measured by an EnVision™ reader (PerkinElmer).
Assay method: Compounds were delivered as 10 mM DMSO solution, serially diluted by an Agilent Bravo Workstation and transferred to the 384 well assay plate (Perkin Elmer #6005359) using a Cybiwell dispenser. Typically, 8 concentrations were used with the highest concentration at 10 μM or 1 μM in the final assay volume followed by ~1:5 dilution steps. DMSO concentration was set to 1% in the final assay volume. The 384 well assay plate contained 20 test compounds and DMSO in column 23 and 24. A cGAMP standard dilution row was prepared according to the manufacturer and transferred to each assay plate. After transfer of compound solution or dilution buffer for negative (high) and positive (low) controls, 5 μl of the human STING protein (cyclic binding domain (residues 138-379) of the WT R232 human version, fused to a 6 His tag (SEQ ID NO: 2) at the Nter part; 1:50 dilution in detection buffer) were dispensed to all wells except of the positive control, which received detection buffer only. Plates were the centrifuged for 20 sec at 1000 rpm. After that, 10 μl of Anti-6His-Cryptate antibody/Sting ligand-d2 mix was added to all wells using a Multidrop combi dispenser, followed by another sec/1000 rpm centrifugation step. After an incubation of the plates for 180 min at room temperature, […] at […] (HTRF ratio) was measured using an Envison Reader (PerkinElmer).
Data evaluation and calculation: For data evaluation and calculation, HTRF ratios were calibrated using the cGAMP standard curve. After that, the measurement of the low control was set as 0% control and the measurement of the high control was set as 100% control. The IC50 values were calculated using the standard 4 parameter logistic regression formula. Calculation: [y=(a−d)/(1+(x/c)^b)+d], a=low value, d=high value; x=conc M; c=IC50 M; b=slope;

[2] = test system: STING inhibition in human whole blood (IFNα2α production); assay: Human whole blood assay (HWBA): cGAMP-stimulated IFNα2α production; format: cell-based; settings: Homo sapiens
In short: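 Na-citrate human whole blood from ≥3 healthy donors, preincubated 60 min at room temperature with compound (8 concentrations, top 10 μM, ~1:5 steps, 0.1% DMSO), then stimulated with cGAMP and incubated 22 h at 37 °C. Plasma IFNα2α measured by MSD immunoassay; % control versus stimulated/unstimulated wells, IC50 by 4-parameter logistic fit.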

T1 sequence (Q86WV6 138-379 H232R): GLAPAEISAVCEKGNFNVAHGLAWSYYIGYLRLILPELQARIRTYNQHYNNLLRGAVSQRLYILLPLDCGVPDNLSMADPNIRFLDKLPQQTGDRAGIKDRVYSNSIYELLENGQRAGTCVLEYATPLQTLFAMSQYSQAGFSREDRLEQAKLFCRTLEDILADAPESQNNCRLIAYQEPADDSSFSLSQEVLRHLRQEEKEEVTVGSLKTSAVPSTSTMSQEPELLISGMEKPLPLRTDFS

Compound	IC50 [1]	IC50 [2]
Cn1cc2cc(-c3nc(-c4cccc5nn(C[C@H](O)c6ccc(OCC7CCOCC7)cc6)cc45)c(C4CC4)n3C)c(C3CC3)nc2n1 [Example 68]	0.0177 µM	0.35 µM
Cn1cc2cc(-c3nc(-c4cccc5nn(C[C@H](O)c6ccc(O)cc6)cc45)c(C4CC4)n3C)c(C3CC3)nc2n1 [Example 55, 4-[(1R)-2-[4-(5-cyclopropyl-2-{6-cyclopropyl-2-methyl-2H-pyrazolo[3,4-b]pyridin-5-yl}-1-methyl-1H-imidazol-4-yl)-2H-indazol-2-yl]-1-hydroxyethyl]phenol]	0.0037 µM	0.2 µM
CC(C)c1c(-c2cccc3nn(C[C@H](O)c4ccccc4)cc23)nc(-c2cc3cn(C)nc3nc2C(F)(F)F)n1C [Example 57, (1R)-2-(4-{1-methyl-2-[2-methyl-6-(trifluoromethyl)-2H-pyrazolo[3,4-b]pyridin-5-yl]-5-(propan-2-yl)-1H-imidazol-4-yl}-2H-indazol-2-yl)-1-phenylethan-1-ol]	0.0249 µM	0.23 µM
CC(C)c1nc2nn(C)cc2cc1-c1nc(-c2cccc3nn(C[C@H](O)c4ccccc4)cc23)c(C2CC2)n1C [Example 97, (1R)-2-(4-{5-Cyclopropyl-1-methyl-2-[2-methyl-6-(propan-2-yl)-2H-pyrazolo[3,4-b]pyridin-5-yl]-1H-imidazol-4-yl}-2H-indazol-2-yl)-1-phenylethan-1-ol]	0.0034 µM	0.052 µM
Cc1nc2cc(C)c(-n3nc(-c4cccc5nn(C[C@H](O)c6ccccc6)cc45)c(C(C)C)c3C)cc2[nH]1 [Example 105, (1R)-2-{4-[1-(2,5-dimethyl-1H-1,3-benzodiazol-6-yl)-5-methyl-4-(propan-2-yl)-1H-pyrazol-3-yl]-2H-indazol-2-yl}-1-phenylethan-1-ol]	0.0781 µM	1.6 µM
CC(C)n1cc2cc(-c3nc(-c4cccc5nn(C[C@H](O)c6ccccc6)cc45)c(C4CC4)n3C)c(C3CC3)nc2n1 [Example 33, (1R)-2-(4-{5-cyclopropyl-2-[6-cyclopropyl-2-(propan-2-yl)-2H-pyrazolo[3,4-b]pyridin-5-yl]-1-methyl-1H-imidazol-4-yl}-2H-indazol-2-yl)-1-phenylethan-1-ol]	0.0061 µM	0.11 µM
Cn1c(-c2cc3cn(CCN4CCOCC4)nc3nc2C2CC2)nc(-c2cccc3nn(C[C@H](O)c4ccccc4)cc23)c1C1CC1 [Example 10, (1R)-2-[4-(5-cyclopropyl-2-{6-cyclopropyl-2-[2-(morpholin-4-yl)ethyl]-2H-pyrazolo[3,4-b]pyridin-5-yl}-1-methyl-1H-imidazol-4-yl)-2H-indazol-2-yl]-1-phenylethan-1-ol]	0.0093 µM	0.069 µM
Cn1cc2cc(-c3nc(-c4cccc5nn(C[C@H](O)c6ccccc6)cc45)c(C4CC4)n3C)c(OC(F)F)cc2n1 [Example 34, (1R)-2-(4-{5-cyclopropyl-2-[6-(difluoromethoxy)-2-methyl-2H-indazol-5-yl]-1-methyl-1H-imidazol-4-yl}-2H-indazol-2-yl)-1-phenylethan-1-ol]	0.0071 µM	0.12 µM

Second part, the compound after the results:

IC50 [1]	IC50 [2]	Compound
0.0181 µM	0.21 µM	Cc1nc2nn(CC3CC3)cc2cc1-n1nc(-c2cccc3nn(C[C@H](O)c4ccccc4)cc23)c(C(C)C)c1C [Example 56, (1R)-2-(4-{1-[2-(cyclopropylmethyl)-6-methyl-2H-pyrazolo[3,4-b]pyridin-5-yl]-5-methyl-4-(propan-2-yl)-1H-pyrazol-3-yl}-2H-indazol-2-yl)-1-phenylethan-1-ol]
0.0114 µM	0.44 µM	Cc1c(C(C)C)c(-c2cccc3nn(C[C@H](O)c4ccccc4)cc23)nn1-c1cc2cn(C)nc2nc1C1CCOCC1 [Example 73, (1R)-2-(4-{5-methyl-1-[2-methyl-6-(oxan-4-yl)-2H-pyrazolo[3,4-b]pyridin-5-yl]-4-(propan-2-yl)-1H-pyrazol-3-yl}-2H-indazol-2-yl)-1-phenylethan-1-ol]
0.0086 µM	0.11 µM	Cc1nc2nn(CCCO)cc2cc1-n1nc(-c2cccc3nn(C[C@H](O)c4ccccc4)cc23)c(C(C)C)c1C [Example 32, 3-[5-(3-{2-[(2R)-2-hydroxy-2-phenylethyl]-2H-indazol-4-yl}-5-methyl-4-(propan-2-yl)-1H-pyrazol-1-yl)-6-methyl-2H-pyrazolo[3,4-b]pyridin-2-yl]propan-1-ol]
0.0175 µM	0.073 µM	Cc1c(C(C)C)c(-c2cccc3nn(C[C@H](O)c4ccccc4)cc23)nn1-c1cc2cn(C)nc2nc1C1CCCO1 (stereo partly drawn) [Example 13, (1R)-2-(4-{5-methyl-1-[2-methyl-6-(oxolan-2-yl)-2H-pyrazolo[3,4-b]pyridin-5-yl]-4-(propan-2-yl)-1H-pyrazol-3-yl}-2H-indazol-2-yl)-1-phenylethan-1-ol]
0.0044 µM	0.071 µM	Cc1nc2nn(CCCCO)cc2cc1-n1nc(-c2cccc3nn(C[C@H](O)c4ccccc4)cc23)c(C(C)C)c1C [Example 12, 4-[5-(3-{2-[(2R)-2-hydroxy-2-phenylethyl]-2H-indazol-4-yl}-5-methyl-4-(propan-2-yl)-1H-pyrazol-1-yl)-6-methyl-2H-pyrazolo[3,4-b]pyridin-2-yl]butan-1-ol]
0.0146 µM	0.081 µM	Cc1nc2nn(C(C)C)cc2cc1-n1nc(-c2cccc3nn(C[C@H](O)c4ccccc4)cc23)c(C(C)C)c1C [Example 18, (1R)-2-(4-{5-methyl-1-[6-methyl-2-(propan-2-yl)-2H-pyrazolo[3,4-b]pyridin-5-yl]-4-(propan-2-yl)-1H-pyrazol-3-yl}-2H-indazol-2-yl)-1-phenylethan-1-ol]
0.0869 µM	0.2 µM	Cc1c(C(C)C)c(-c2cccc3nn(C[C@H](O)c4ccccc4)cc23)nn1-c1cc2cn(C)nc2nc1CC1CC1 [Example 54, (1R)-2-(4-{1-[6-(cyclopropylmethyl)-2-methyl-2H-pyrazolo[3,4-b]pyridin-5-yl]-5-methyl-4-(propan-2-yl)-1H-pyrazol-3-yl}-2H-indazol-2-yl)-1-phenylethan-1-ol]
0.0069 µM	0.037 µM	CCn1cc2cc(-n3nc(-c4cccc5nn(C[C@H](O)c6ccccc6)cc45)c(C(C)C)c3C)c(C)nc2n1 [Example 100, (1R)-2-[4-(1-{2-ethyl-6-methyl-2H-pyrazolo[3,4-b]pyridin-5-yl}-5-methyl-4-(propan-2-yl)-1H-pyrazol-3-yl)-2H-indazol-2-yl]-1-phenylethan-1-ol]
0.0121 µM	0.073 µM	Cc1nc2nn(CCN3CCOCC3)cc2cc1-n1nc(-c2cccc3nn(C[C@H](O)c4ccccc4)cc23)c(C(C)C)c1C [Example 1, (1R)-2-[4-(5-methyl-1-{6-methyl-2-[2-(morpholin-4-yl)ethyl]-2H-pyrazolo[3,4-b]pyridin-5-yl}-4-(propan-2-yl)-1H-pyrazol-3-yl)-2H-indazol-2-yl]-1-phenylethan-1-ol]
0.0028 µM	0.11 µM	Cc1c(C2CC2)c(-c2cccc3nn(C[C@H](O)c4ccccc4)cc23)nn1-c1cc2cn(C)nc2nc1C1CC1 [Example 29, (1R)-2-[4-(4-cyclopropyl-1-{6-cyclopropyl-2-methyl-2H-pyrazolo[3,4-b]pyridin-5-yl}-5-methyl-1H-pyrazol-3-yl)-2H-indazol-2-yl]-1-phenylethan-1-ol]
